# Reference: patent US20080281105A1, “Novel Quinolinium Salts and Derivatives” (IMMUSOL INCORPORATED, priority 2005, published 2008)
# Legend:
# T47D [1] = assay: Cell growth in liquid culture (alamarBlue); details: Homo sapiens, 72 h, read-out: IC50 (uM) Liquid culture
# SKBR3 [2] = assay: Cell growth in liquid culture (alamarBlue); details: Homo sapiens, SK-BR-3, 72 h, read-out: IC50 (uM) Liquid culture
# HS578 [3] = assay: Cell growth in liquid culture (alamarBlue); details: Hs578, 72 h, read-out: IC50 (uM) Liquid culture
# HCT116 = assay: Cell growth in liquid culture (alamarBlue); details: Homo sapiens, HCT-116, 72 h, read-out: IC50 (uM) Liquid culture
# HCT116-P53(−) [4] = assay: Cell growth in liquid culture (alamarBlue); details: 72 h, read-out: IC50 (uM) Liquid culture
# DLD1 [5] = assay: Cell growth in liquid culture (alamarBlue); details: Homo sapiens, DLD-1, 72 h, read-out: IC50 (uM) Liquid culture
# PC3 [6] = assay: Cell growth in liquid culture (alamarBlue); details: Homo sapiens, PC-3, 72 h, read-out: IC50 (uM) Liquid culture
# Panc-1 = assay: Cell growth in liquid culture (alamarBlue); details: Homo sapiens, PANC-1, 72 h, read-out: IC50 (uM) Liquid culture
# ASPC-1 = assay: Cell growth in liquid culture (alamarBlue); details: Homo sapiens, ASPC1, 72 h, read-out: IC50 (uM) Liquid culture
# A2780 = assay: Cell growth in liquid culture (alamarBlue); details: Homo sapiens, A2780, 72 h, read-out: IC50 (uM) Liquid culture
# OVCAR-1 = assay: Cell growth in liquid culture (alamarBlue); details: OVCAR1, 72 h, read-out: IC50 (uM) Liquid culture
# PA-1 = assay: Cell growth in liquid culture (alamarBlue); details: Homo sapiens, PA-1, 72 h, read-out: IC50 (uM) Liquid culture
# OVCAR-4 = assay: Cell growth in liquid culture (alamarBlue); details: Homo sapiens, OVCAR-4, 72 h, read-out: IC50 (uM) Liquid culture
# UACC62 [7] = assay: Cell growth in liquid culture (alamarBlue); details: Homo sapiens, UACC-62, 72 h, read-out: IC50 (uM) Liquid culture
# UACC257 [8] = assay: Cell growth in liquid culture (alamarBlue); details: Homo sapiens, UACC-257, 72 h, read-out: IC50 (uM) Liquid culture
# W138 = assay: Cell growth in liquid culture (alamarBlue); details: W138, 72 h, read-out: IC50 (uM) Liquid culture
# IMR90 = assay: Cell growth in liquid culture (alamarBlue); details: Homo sapiens, IMR-90, 72 h, read-out: IC50 (uM) Liquid culture
# T47D [9] = assay: Cell growth in soft agar culture (alamarBlue); details: Homo sapiens, 168 h, read-out: IC50 (uM) Soft agar
# SKBR3 [10] = assay: Cell growth in soft agar culture (alamarBlue); details: Homo sapiens, SK-BR-3, 168 h, read-out: IC50 (uM) Soft agar
# MDA_MB-435 = assay: Cell growth in soft agar culture (alamarBlue); details: Homo sapiens, MDA-MB-435, 168 h, read-out: IC50 (uM) Soft agar
# HS578 [11] = assay: Cell growth in soft agar culture (alamarBlue); details: Hs578, 168 h, read-out: IC50 (uM) Soft agar
# HCT116-P53(−) [12] = assay: Cell growth in soft agar culture (alamarBlue); details: 168 h, read-out: IC50 (uM) Soft agar
# DLD1 [13] = assay: Cell growth in soft agar culture (alamarBlue); details: Homo sapiens, DLD-1, 168 h, read-out: IC50 (uM) Soft agar
# Pc3M/N = assay: Cell growth in soft agar culture (alamarBlue); details: Homo sapiens, PC-3M, 168 h, read-out: IC50 (uM) Soft agar
# PC3 [14] = assay: Cell growth in soft agar culture (alamarBlue); details: Homo sapiens, PC-3, 168 h, read-out: IC50 (uM) Soft agar
# OVCAR-8 = assay: Cell growth in soft agar culture (alamarBlue); details: Homo sapiens, OVCAR-8, 168 h, read-out: IC50 (uM) Soft agar
# OVCAR-5 = assay: Cell growth in soft agar culture (alamarBlue); details: Homo sapiens, OVCAR-5, 168 h, read-out: IC50 (uM) Soft agar
# NCI-H460 = assay: Cell growth in soft agar culture (alamarBlue); details: Homo sapiens, NCI-H460, 168 h, read-out: IC50 (uM) Soft agar
# UACC62 [15] = assay: Cell growth in soft agar culture (alamarBlue); details: Homo sapiens, UACC-62, 168 h, read-out: IC50 (uM) Soft agar
# UACC257 [16] = assay: Cell growth in soft agar culture (alamarBlue); details: Homo sapiens, UACC-257, 168 h, read-out: IC50 (uM) Soft agar
smiles,measurement,setting,value
"Cc1cc(/C=C/c2ccc3cc(N(C)C)ccc3[n+]2C)c(C)n1-c1ccccc1 [Example 1, Pyrvinium Phosphate]",IC50,T47D [1],~0.03 µM
same,IC50,SKBR3 [2],~1 µM
same,IC50,HS578 [3],0.1 to 0.3 µM
same,IC50,HCT116,> 1 µM
same,IC50,HCT116-P53(−) [4],> 1 µM
same,IC50,DLD1 [5],0.3 to 1 µM
same,IC50,PC3 [6],0.1 to 0.3 µM
same,IC50,Panc-1,0.3 to 1 µM
same,IC50,ASPC-1,0.3 to 1 µM
same,IC50,A2780,0.03 to 0.1 µM
same,IC50,OVCAR-1,0.03 to 0.1 µM
same,IC50,PA-1,0.03 to 0.1 µM
same,IC50,OVCAR-4,0.1 to 0.3 µM
same,IC50,UACC62 [7],0.1 to 0.3 µM
same,IC50,UACC257 [8],~0.1 µM
same,IC50,W138,0.1 to 0.3 µM
same,IC50,IMR90,0.1 to 0.3 µM
same,IC50,T47D [9],< 0.03 µM
same,IC50,SKBR3 [10],~1 µM
same,IC50,MDA_MB-435,0.03 to 0.1 µM
same,IC50,HS578 [11],0.03 to 0.1 µM
same,IC50,HCT116-P53(−) [12],0.1 to 0.3 µM
same,IC50,DLD1 [13],~1 µM
same,IC50,Pc3M/N,~0.3 µM
same,IC50,PC3 [14],0.1 to 0.3 µM
same,IC50,OVCAR-8,0.03 to 0.1 µM
same,IC50,OVCAR-5,0.03 to 0.1 µM
same,IC50,NCI-H460,0.03 to 0.1 µM
same,IC50,UACC62 [15],0.03 to 0.1 µM
same,IC50,UACC257 [16],0.1 to 0.3 µM
